The values below come from US10166203B2, “Pharmaceutical composition for treating cancer including 2-methoxy-4-(3-(4-methoxyphenyl)prop-1-en-1-yl)phenol as active ingredient” (CHUNGBUK NATIONAL UNIVERSITY INDUSTRY-ACADEMIC COOPERATION …, priority 2015, dated 2019).

≈ marks a conversion by molar mass, not a printed value.

For one assay, the system named is SW480 xenografted mouse. Description: Anticancer activity in a colon cancer xenograft animal model. It counts as in vivo. The following applies: twice a week for 3 weeks, nude mice.
Assay [1] deals with SW480 cells. The experiment in a line: Western blot analysis of cell cycle regulatory and apoptosis signal proteins. It counts as cell-based, human. The method, then:
Lysates, cytosolic and nuclear extracts of whole cells were obtained. SDS-PAGE and western blot analysis were performed as described in published documents 1 and 2 [1, 2]. Put briefly, the cells of 5×10^5 cells/well were inoculated in 6-well plates and cultured for 24 hours. Cells were then treated with MMPP or DMSO for 24 hours. The treated cells were washed twice with PBS and lysed. Proteins from the lysed cells were separated on 10 to 15% SDS-PAGE. Proteins were transferred to a PVDF membrane and the PVDF membrane was blocked with TBS/T-buffer including 5% defatted milk for 2.5 hours at room temperature. The membrane to which the proteins are transferred was analyzed by using a mouse monoclonal antibody for as a primary antibody. Protein expression was visualized using a chemiluminescence reagent (Amersham Pharmacia Biotech, Inc., Buckinghamshire, UK) and measured using a in which a CCD camera (Fusion-FX, Fisher BioTech, Ltd., Wembley, Australia) is installed.
2. Effect of MMPP on Cell Cycle Regulatory Signal and Apoptosis Signal In order to investigate the basic mechanism of the growth inhibitory effect of colon cancer cells of MMPP, it was examined whether MMPP treatment affects cell cycle regulation and apoptosis signals in SW480 cells.
A general note: Immunoblotting shows a protein as a band on a membrane.

The subject of assay [2] is SW480 cells. Description: Cell viability analysis using MTT assay. It counts as cell-based, human. The protocol:
The human colon cancer cell line, SW480, was purchased from the American Type Culture Collection (Manassas, Va., USA) and cultured in an RPMI (Roswell Park Memorial Institute)-1640 medium (Gibco-BRL) to which 10% heat-inactivated fetal bovine serum (FBS) and penicillin/streptomycin at 37° C. humidified atmosphere of 5% CO2. The cells were cultured in a 100 mm culture dish at a concentration of 4×10^5 cells for experiments.
The influence of 2-methoxy-4-(3-(4-methoxyphenyl)prop-1-en-1-yl)phenol (MMPP) on the viability of cells was confirmed by colorimetric and metabolic activity assay using MTT [3-(4,5-dimethylthiazol-2-yl)-2,5-diphenyltetrazolium bromide]. Put briefly, cells were inoculated on 96-well plates at 1×10^4 cells/well and cultured for 24 hours. Cells were treated with 2.5 to 10 μg/ml MMPP or DMSO (dimethyl sulfoxide), a solvent for MMPP. After culturing for 24 hours, the medium including MMPP was removed and replaced with 100 μl of fresh medium. After culturing for 1.5 hours, medium including MTT was removed and 200 μl DMSO was added to each well. The plate was then agitated at a weak intensity until the color reaction of the plate became uniform. Colorimetric evaluation was performed using a microplate reader at 540 nm.
The inhibitory effect of MMPP on the growth of human colon cancer cells was examined using SW480 cells.
(Tetrazolium dyes change colour on reduction, which living cells bring about.)

In a further assay the target is T1, STAT3 (Homo sapiens, UniProt P40763).
T1 construct: endogenous in cells; host or cells: SW480 cells (nuclear extract)
T1 sequence (P40763 whole entry): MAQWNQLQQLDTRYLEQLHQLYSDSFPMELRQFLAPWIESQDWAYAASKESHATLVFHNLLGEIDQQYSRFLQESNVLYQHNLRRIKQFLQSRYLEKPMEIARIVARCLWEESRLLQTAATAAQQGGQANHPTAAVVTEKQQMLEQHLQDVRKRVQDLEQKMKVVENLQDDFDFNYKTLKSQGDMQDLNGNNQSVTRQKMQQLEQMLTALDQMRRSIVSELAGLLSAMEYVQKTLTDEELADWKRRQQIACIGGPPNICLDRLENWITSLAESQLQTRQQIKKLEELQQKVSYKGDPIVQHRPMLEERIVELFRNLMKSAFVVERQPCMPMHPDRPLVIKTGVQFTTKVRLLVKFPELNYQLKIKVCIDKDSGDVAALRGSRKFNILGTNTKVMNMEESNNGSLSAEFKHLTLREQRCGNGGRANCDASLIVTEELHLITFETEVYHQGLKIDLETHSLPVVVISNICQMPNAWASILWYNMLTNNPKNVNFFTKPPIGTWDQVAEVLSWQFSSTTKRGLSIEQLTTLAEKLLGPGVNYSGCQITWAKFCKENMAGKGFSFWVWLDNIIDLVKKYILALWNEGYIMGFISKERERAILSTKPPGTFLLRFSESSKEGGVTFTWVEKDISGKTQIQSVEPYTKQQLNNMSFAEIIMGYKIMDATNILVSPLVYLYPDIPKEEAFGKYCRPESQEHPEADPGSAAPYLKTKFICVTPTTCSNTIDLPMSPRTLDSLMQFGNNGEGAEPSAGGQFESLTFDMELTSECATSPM
The experiment in a line: DNA binding activity of STAT3 using EMSA. It is filed as cell-based. To be noted: SW480 cells exposed for 1 hour. The method, then:
The DNA binding activity of STAT3 was measured using an electrophoretic mobility shift assay (EMSA) as described in document 1. Put briefly, cells were cultured in a 100 mm culture dish at 37° C. for 24 hours and then treated with MMPP or DMSO. After incubation for 24 hours, the cells were washed three times with cold PBS and nuclear extracts for EMSA experiments were prepared. Relative thickness of the DNA-protein binding band was quantified using Lab Works 4.0 software (UVP Inc., Upland, Calif., USA) after scanning with densitometry.
In order to determine whether MMPP reacted with STAT3 to inhibit DNA binding activity of STAT3, MMPP was exposed to SW480 cells for 1 hour and the DNA binding activity of STAT3 was measured.
A general note: In EMSA bound probe runs differently from free probe, usually more slowly.

As usually defined, the IC50 is the concentration that gives 50% inhibition. `COc1ccc(C/C=C/c2ccc(O)c(OC)c2)cc1` [MMPP, 2-methoxy-4-(3-(4-methoxyphenyl)propyl-1-en-1-yl)phenol]: the “Tumor volume compared to the control group” value with SW480 xenografted mouse (2.5 mg/kg intraperitoneal) is recorded as 65%. Moreover, the “Tumor volume compared to the control group” value with SW480 xenografted mouse (5 mg/kg intraperitoneal) was found to be 35%. Further, in the assay with SW480 cells [1], the “expression of cell cycle regulatory signal proteins” value is “effectively reduced the expression”; the “expression of pro-apoptotic proteins cleaved caspase-3, cleaved caspase-8 and Bax” value is recorded as “increased the expression”; the “expression of the anti-apoptotic protein Bcl-2” value is given as “reduced the expression”. In addition, the “cell density compared to the control group” value in the assay on SW480 cells [2] is “significantly reduced cell density”. In the assay with SW480 cells [2] (Homo sapiens, MMPP 2.5 to 10 μg/ml, treated for 24 hours, MTT, read-out: IC50 value, inhibition of the growth of SW480 cells), the IC50 came out at 5.9 µg/mL (≈ 21.8 µM). The “DNA binding activity of STAT3” value at STAT3 is given as “effectively inhibited DNA binding activity of STAT3”.
